Laboratory results from patent US5344846A, “Compositions and methods for inhibiting deoxyhypusine synthase and the growth of cells” (The United States of America as represented by the …, priority 1992, dated 1994).
Entries after “also recorded” stand apart in the source; their conditions may differ. Like-named read-outs stand apart in the source and are kept apart here.

Assays:
[1] = tested on: deoxyhypusine synthase from HTC cells; conditions: 20 μM inhibitor; 1 μM spermidine; precursor from DFMO-treated HTC cells; cited from earlier work
[2] = target: T1, deoxyhypusine synthase from rat testis (Rattus norvegicus, UniProt Q6AY53); test: Inhibition of deoxyhypusine synthase ([3H]deoxyhypusine formation from [3H]spermidine), IC50/Ki; assay type: biochemical; conditions: for relative inhibitory potency (in words): comparison with parent amine, bisguanylated counterpart or another inhibitor; for Ki: competitive vs spermidine
T1 construct: as catalyzed by deoxyhypusine synthase from rat testis; from tissue; host or cells: rat testis
T1 sequence (Q6AY53 1-369): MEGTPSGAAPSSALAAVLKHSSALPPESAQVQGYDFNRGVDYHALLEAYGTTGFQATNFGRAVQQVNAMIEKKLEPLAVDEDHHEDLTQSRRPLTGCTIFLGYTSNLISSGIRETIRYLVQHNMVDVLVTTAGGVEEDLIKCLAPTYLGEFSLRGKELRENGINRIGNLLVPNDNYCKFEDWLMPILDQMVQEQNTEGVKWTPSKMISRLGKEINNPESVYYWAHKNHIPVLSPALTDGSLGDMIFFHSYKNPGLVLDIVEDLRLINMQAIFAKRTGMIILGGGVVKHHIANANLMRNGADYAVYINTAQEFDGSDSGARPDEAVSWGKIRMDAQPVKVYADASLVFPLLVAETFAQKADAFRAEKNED
Protocol: The enzyme assay was performed as previously described (see Wolff et al. (1990) J. Biol. Chem. 265:4793-4799; and Park et al. (1991) J. Biol. Chem. 266:7988-7994). A typical assay mixture included 0.2M glycine, 1 mM dithiothreitol, 0.5 mM NAD^+, 2.4 micromolar (μM) [1,8-^3 H] spermidine, 1 μM ec-eIF-5A(Lys), 25 micrograms (μg) bovine serum albumin, and 3-15 units of enzyme in a total volume of 20 microliters (μl). Incubations were carried out at pH 9.3 and 37° C. for 1 hour. […] Percent inhibition was plotted versus log inhibitor concentration in order to obtain graphic estimates of IC50 values, i.e., the concentrations inhibiting [^3 H]deoxyhypusine production by 50%. The IC50 values reported in the tables were calculated by fitting the data points to equation 1 where x=% inhibition and I is the inhibitor concentration. [formula] The nature of the inhibition was determined by plotting reciprocal velocities of [^3 H]deoxyhypusine production against reciprocals of [^3 H]spermidine concentrations at a constant fixed level of ec-eIF-5A(Lys) (1 μM) and at set inhibitor concentrations. […] Estimates of Ki values were made by fitting the data to equation 2; wherein v is the velocity of the reaction, V is the maximum velocity, S is the substrate concentration, Km is Michaeli's constant, Ki is the inhibition constant, and I is the inhibitor concentration. [formula] All fits were performed by means of an interactive curve-fitting program, MLAB, developed and modified at the National Institutes of Health to run on an IBM personal computer.

deoxyhypusine synthase = target: T2, deoxyhypusine synthase (Rattus norvegicus, UniProt Q6AY53); conditions: earlier publications, cited from earlier work
T2 construct: full-length homotetramer; substrate was human eIF-5A precursor expressed in E. coli
T2 sequence (Q6AY53 1-369): T1 sequence (Q6AY53 1-369)

[3] = cited from earlier work
[4] = pH 9.3, 37° C., 1 hour, 2.4 μM [3H]spermidine

## NCCCNCCC(F)CN (stereo not drawn) [7-monofluorospermidine]
[1]
  inhibition of deoxyhypusine synthase: 35%

## NCCCN [Compound 2, 1,3-diaminopropane]
[2]; pH 9.3, 37° C., 1 hour, 2.4 μM [3H]spermidine, listed as 1,3-diaminopropane
  inhibition of deoxyhypusine synthase (in words): inhibit
[2]; pH 9.3, 37° C., 1 hour, 2.4 μM [3H]spermidine, listed as compound 2
  inhibition of deoxyhypusine synthase (in words): exerts product inhibition; also recorded: inhibit the enzyme
[2]; varied [3H]spermidine, ec-eIF-5A(Lys) fixed at 1 μM
  type of inhibition (kinetics): competitive

## NCCCCN [Compound 3, putrescine]
[2]; pH 9.3
  inhibition of deoxyhypusine synthase (in words): inhibit the enzyme

## NCCCCCN [Compound 4, cadaverine]
[2]; [4]
  inhibition of deoxyhypusine synthase (in words): does not

## NCCCCCCN [Compound 5, 1,6-diaminohexane]
[2]; [4]
  inhibition of deoxyhypusine synthase (in words): displays inhibition

## NCCCCCCCN [Compound 6, 1,7-diaminoheptane]
[2]; [4]
  inhibition of deoxyhypusine synthase (in words): strong inhibition

## NCCCCCCCCN [Compound 7, 1,8-diaminooctane]
[2]; [4]
  inhibition of deoxyhypusine synthase (in words): strong inhibition

## NCCCNCCCN [Compound 9, caldine]
[2]; pH 9.3
  inhibition of deoxyhypusine synthase (in words): some degree of inhibition
Deoxyhypusine synthase; listed as caldine
  substrate or cofactor function for deoxyhypusine synthase: no detectable substrate property
Deoxyhypusine synthase; listed as compound 9
  substrate or cofactor function for deoxyhypusine synthase: fails to serve as a substrate

## NCCCCNCCCN [Compound 10, spermidine]
[3]
  pKa of N1-amino group: 9.94
  pKa of N8-amino group: 10.81

## NCCCCCNCCCN [Compound 11, N-(3-aminopropyl)cadaverine]
[2]; [4]
  inhibition of deoxyhypusine synthase (in words): some degree of inhibition
Deoxyhypusine synthase; listed as N-(3-aminopropyl)cadaverine
  substrate or cofactor function for deoxyhypusine synthase: function as a substrate for deoxyhypusine synthase, albeit a poor one; also recorded: acts as a substrate
Deoxyhypusine synthase; listed as compound 11
  substrate or cofactor function for deoxyhypusine synthase: functions as a substrate, albeit a poor one

## NCCCNCCCCNCCCN [Compound 12, spermine]
[2]; pH 9.3
  inhibition of deoxyhypusine synthase (in words): failure

## CCCCCCCCN [Compound 13]
[2]; [4]
  inhibition of deoxyhypusine synthase (in words): does not appear to interact to any significant extent

## c1ccc(CNCCCCCCCCNCc2ccccc2)cc1 [Compound 25, N,N'-bis-benzyl-1,8-diaminooctane]
[2]; [4]
  inhibition of deoxyhypusine synthase (in words): loss in binding

## CN(CCCN)CCCN [Compound 30, N^4 -methylcaldine]
[2]; [4]
  inhibition of deoxyhypusine synthase (in words): devoid of inhibitory activity; also recorded: do not interact with the active site of the enzyme

## NCCCN1CCC(CN)CC1 [Compound 31, 1-(3-Aminopropyl)-4-aminomethylpiperidine]
[2]; [4]
  inhibition of deoxyhypusine synthase (in words): failure to inhibit the enzyme

## NCCCN[C@H]1CC[C@@H](N)CC1 [Compound 32, N-(3-aminopropyl)-1,4-diaminocyclohexane]
[2]; [4]
  inhibition of deoxyhypusine synthase (in words): failure to inhibit the enzyme

## NCCCN[C@H]1CC[C@H](N)CC1 [Compound 33, N-(3-aminopropyl)-1,4-diaminocyclohexane]
[2]; [4]
  inhibition of deoxyhypusine synthase (in words): failure to inhibit the enzyme

## CC(C)(CCCN)NCCCN [Compound 34, 5,5-dimethylspermidine]
[2]; [4]
  inhibition of deoxyhypusine synthase (in words): abolished inhibition; also recorded: failure to inhibit the enzyme

## CC(N)CCNCCCCN (stereo not drawn) [Compound 35, 1-Methyl spermidine]
[2]; [4]
  inhibition of deoxyhypusine synthase (in words): Some degree of inhibition

## NCCCNCC(F)CCN (stereo not drawn) [Compound 36, 6-fluorospermidine]
[2]; [4]
  inhibition of deoxyhypusine synthase (in words): quite strong inhibitors; also recorded: effective inhibition; also recorded: act as inhibitors
[3]
  pKa of N1-amino group: 10.40
  pKa of N8-amino group: 9.55
[1]
  inhibition of deoxyhypusine synthase: 86%

## NCCCNCCCON [Compound 39, N-(3-aminooxypropyl)-1,3-diaminopropane]
[2]; [4]
  inhibition of deoxyhypusine synthase (in words): without effect; also recorded: does not function as an inhibitor
[3]; aminooxy group
  pKa of aminooxy group: 4.5-5.0

## N=C(N)NCCCCCCNC(=N)N [Compound 41, N^1,N^6-bisguanyl-1,6-diaminohexane]
[2]
  relative inhibitory potency (in words): inhibition not widely different from its parent amine
[2]; [4]
  inhibition of deoxyhypusine synthase (in words): acted as inhibitors of deoxyhypusine synthase

## N=C(N)NCCCCCCCNC(=N)N [Compound 42, N^1,N^7-bisguanyl-1,7-diaminoheptane]
[2]
  relative inhibitory potency (in words): inhibition not widely different from its parent amine
  Ki: 1200 nM
[2]; [4]
  inhibition of deoxyhypusine synthase (in words): acted as inhibitors of deoxyhypusine synthase

## N=C(N)NCCCCCCCCNC(=N)N [Compound 43, N^1,N^8-bisguanyl-1,8-diaminooctane]
[2]
  relative inhibitory potency (in words): somewhat stronger an inhibitor than guazatine (compound 40), showed no better inhibition than the parent diamine, 1,8-diaminooctane (compound 7); also recorded: inhibition not widely different from its parent amine
[2]; [4]
  inhibition of deoxyhypusine synthase (in words): acted as inhibitors of deoxyhypusine synthase

## N=C(N)NCCCNC(=N)N [Compound 44, N^1,N^3-bisguanyl-1,3-diaminopropane]
[2]; [4]
  inhibition of deoxyhypusine synthase (in words): without inhibitory property; also recorded: no inhibition was detected

## N=C(N)NCCCNCCCNC(=N)N [Compound 45, N^1,N^7 -bisguanyl caldine]
[2]
  relative inhibitory potency (in words): inhibition not widely different from its parent amine
[2]; [4]
  inhibition of deoxyhypusine synthase (in words): somewhat reduced inhibition
[2]; vs parent caldine (45 vs 9)
  increase in IC50 by bisguanylation: 5 fold

## N=C(N)NCCCN [Compound 46, N^1-guanyl-1,3-diaminopropane]
[2]; [4]
  inhibition of deoxyhypusine synthase (in words): without inhibitory property; also recorded: no inhibition was detected

## N=C(N)NCCCCN [Compound 47, agmatine]
[2]; [4]
  inhibition of deoxyhypusine synthase (in words): moderate degree of inhibition; also recorded: mild degree of inhibition

## N=C(N)NCCCNCCCN [Compound 48, N^1 -guanylcaldine]
[2]
  relative inhibitory potency (in words): far exceeding the parent amines, as well as their bisguanylated counterparts, in inhibitory potency; also recorded: uniformly more efficient inhibition
[2]; [4]
  inhibition of deoxyhypusine synthase (in words): excellent inhibitors

## N=C(N)NCCCCCCCN [Compound 49, N^1-guanyl-1,7-diaminoheptane]
[2]
  relative inhibitory potency (in words): far exceeding the parent amines, as well as their bisguanylated counterparts, in inhibitory potency; also recorded: strongest inhibition of the compounds tested; also recorded: uniformly more efficient inhibition
  Ki: 9.7 nM
[2]; [4]
  inhibition of deoxyhypusine synthase (in words): excellent inhibitors
[2]; vs apparent Km for spermidine (4.5±0.7 μM)
  Ki, fold less than the apparent Km for spermidine: about 450 fold

## N=C(N)NCCCCCCCCN [Compound 50, N^1-guanyl-1,8-diaminooctane]
[2]
  relative inhibitory potency (in words): far exceeding the parent amines, as well as their bisguanylated counterparts, in inhibitory potency; also recorded: uniformly more efficient inhibition
[2]; [4]
  inhibition of deoxyhypusine synthase (in words): excellent inhibitors

## NC(=O)C1=CN([C@@H]2O[C@H](COP(=O)(O)OP(=O)(O)OC[C@H]3O[C@@H](n4cnc5c(N)ncnc54)[C@H](O)[C@@H]3O)[C@@H](O)[C@H]2O)C=CC1 [NADH]
Deoxyhypusine synthase
  substrate or cofactor function for deoxyhypusine synthase: negligible

## NC(=O)c1ccc[n+]([C@@H]2O[C@H](COP(=O)([O-])OP(=O)(O)OC[C@H]3O[C@@H](n4cnc5c(N)ncnc54)[C@H](OP(=O)(O)O)[C@@H]3O)[C@@H](O)[C@H]2O)c1 [NADP^+]
Deoxyhypusine synthase
  substrate or cofactor function for deoxyhypusine synthase: negligible

## NCCCC[C@H](N)C(=O)O [free lysine, lysine]
Deoxyhypusine synthase
  substrate or cofactor function for deoxyhypusine synthase: Neither free lysine nor synthetic 9- or 16-member peptides modeled on the amino acid sequence encompassing the lysine residue in eIF-5A precursors that undergoes modification to hypusine, function as substrates

## altered eIF-5A precursor protein, in which Lys^50 is replaced by Arg: altered eIF-5A precursor protein, in which Lys^50 is replaced by Arg
Deoxyhypusine synthase
  substrate or cofactor function for deoxyhypusine synthase: is not
